Drawing on article PMC9610943, “Truncated Pleurocidin Derivative with High Pepsin Hydrolysis Resistance to Combat Multidrug-Resistant Pathogens” (Pharmaceutics, 2022), this text covers MIC for two compounds.

For test [1], the system named is MRSA 1530. Nature of the test: microbe, parasite or virus in culture. The conditions noted are these: MRSA 1530, micro-broth dilution CLSI 2018, MHB, 37 °C, 16 to 18 h. In kind it is cell-based, Staphylococcus aureus. The procedure: (§1) S. aureus ATCC 29213, E. coli ATCC 25922, S. enteritidis ATCC 13076 and A. baumannii ATCC 19609 were obtained from the American Type Culture Collection (ATCC). The remaining strains used in the experiment were all preserved strains in our laboratory. All strains were cultured in nutrient broth overnight to the logarithmic phase at 37 °C prior to each experiment.
(§2) The MICs of all drugs were determined by micro-broth dilution method according to CLSI 2018 guidelines. Briefly, a single colony of the bacterial strain was transferred to 1 mL of Mueller Hilton broth (MHB) and overnight at 37 °C and then 10 μL were cultured in a new 1 mL medium for 4 to 6 h, and then the bacterial culture at the logarithmic phase was diluted to 1 × 10^6 CFUs/mL. The assay was performed by adding 100 μL of each peptide solution at various concentrations (0.25 to 128 μg/mL) and 100 μL of diluted bacterial culture to different wells of a 96-well microtiter plate (Corning, NY, USA). After incubation at 37 °C for 16 to 18 h and then read its MIC value. MIC value is defined as the lowest drug concentration without visible bacteria.
A general note: Dilution methods test growth across graded concentrations, often in twofold steps.

The subject of test [2] is MRSA T144. The test is described as follows: microbe, parasite or virus in culture. Type of test: cell-based, Staphylococcus aureus. The conditions noted are these: MRSA T144, micro-broth dilution CLSI 2018, MHB, 37 °C, 16 to 18 h. The procedure: as §1, §2
Test [3] relates to P. cibarius HNCF44W (blaNDM-1+ tet(X6)). Nature of the test: organism not typed. Type of test: cell-based. The conditions noted are these: P. cibarius HNCF44W (blaNDM-1+ tet(X6)), micro-broth dilution CLSI 2018, MHB, 37 °C, 16 to 18 h. The procedure: as §1, §2
For test [4], the system named is P. aeruginosa (VIM + tmexCD1-torJ1). The test is described as follows: microbe, parasite or virus in culture. In kind it is cell-based. The procedure: as §1, §2
The subject of test [5] is A. baumannii ATCC 19609. The test is described as follows: microbe, parasite or virus in culture. Type of test: cell-based. The conditions noted are these: A. baumannii ATCC 19609, micro-broth dilution CLSI 2018, MHB, 37 °C, 16 to 18 h. The procedure:
as §1, §2

In test [6] the test system is S. aureus ATCC 29213. Nature of the test: microbe, parasite or virus in culture. In kind it is cell-based. The procedure: as §1, §2
Test [7] relates to E. faecalis A4 (VRE, VanA). The test is described as follows: microbe, parasite or virus in culture. Type of test: cell-based. The procedure:
as §1, §2

The test system of test [8] is E. coli 1F28 (tet(X4)). The test is described as follows: microbe, parasite or virus in culture. Type of test: cell-based. The conditions noted are these: E. coli 1F28 (tet(X4)), micro-broth dilution CLSI 2018, MHB, 37 °C, 16 to 18 h. The procedure:
as §1, §2

Test [9] concerns E. coli CP131 (mcr-3). Nature of the test: microbe, parasite or virus in culture. In kind it is cell-based. Particulars: E. coli CP131 (mcr-3), micro-broth dilution CLSI 2018, MHB, 37 °C, 16 to 18 h. The procedure: as §1, §2
In test [10] the test system is E. coli C3 (blaNDM-1). Nature of the test: microbe, parasite or virus in culture. Type of test: cell-based. Particulars: E. coli C3 (blaNDM-1), micro-broth dilution CLSI 2018, MHB, 37 °C, 16 to 18 h. The procedure:
as §1, §2

For test [11], the system named is S. aureus 215 (cfr + LZD^R). The test is described as follows: microbe, parasite or virus in culture. In kind it is cell-based. The procedure: as §1, §2
The subject of test [12] is E. coli B3-1 (tet(X4)). The test is described as follows: microbe, parasite or virus in culture. Particulars: E. coli B3-1 (tet(X4)), micro-broth dilution CLSI 2018, MHB, 37 °C, 16 to 18 h. Type of test: cell-based. The procedure:
as §1, §2

Test [13] relates to S. enteritidis ATCC 13076. Nature of the test: microbe, parasite or virus in culture. Type of test: cell-based. The procedure: as §1, §2
For test [14], the system named is E. coli ATCC 25922. The test is described as follows: microbe, parasite or virus in culture. In kind it is cell-based. The procedure: as §1, §2
In test [15] the test system is E. coli G6 (blaNDM-5). Nature of the test: microbe, parasite or virus in culture. Type of test: cell-based. Particulars: E. coli G6 (blaNDM-5), micro-broth dilution CLSI 2018, MHB, 37 °C, 16 to 18 h. The procedure:
as §1, §2

Test [16] has as its system E. coli G92 (mcr-1). Nature of the test: microbe, parasite or virus in culture. In kind it is cell-based. The conditions noted are these: E. coli G92 (mcr-1), micro-broth dilution CLSI 2018, MHB, 37 °C, 16 to 18 h. The procedure: as §1, §2
The subject of test [17] is S. aureus G16 (RIF^R). Nature of the test: microbe, parasite or virus in culture. In kind it is cell-based. The procedure: as §1, §2
The test system of test [18] is P. aeruginosa PA14. The test is described as follows: microbe, parasite or virus in culture. In kind it is cell-based. The procedure: as §1, §2
For test [19], the system named is E. coli B2 (blaNDM-5 + mcr-1). Nature of the test: microbe, parasite or virus in culture. Type of test: cell-based. The conditions noted are these: E. coli B2 (blaNDM-5 + mcr-1), micro-broth dilution CLSI 2018, MHB, 37 °C, 16 to 18 h. The procedure: as §1, §2
The mark [20] stands for this setting: Staphylococcus aureus, read-out: MIC.
Where [21] appears, read: Escherichia coli, read-out: MIC.

Converted amounts (≈) assume the structure as drawn. Read-outs that look alike come from different tables or passages of the source. Where no end group is shown, it is not given here. A value given as a limit tells only on which side of the number the result lay.

`CN(C)c1cc(NC(=O)CNC(C)(C)C)c(O)c2c1C[C@H]1C[C@H]3[C@H](N(C)C)C(O)=C(C(N)=O)C(=O)[C@@]3(O)C(O)=C1C2=O` [Tig, tigecycline, reference compound]: the MIC in test [1] (setting [20]) is 1 µg/mL (≈ 1.71 µM); in test [2] (setting [20]), 0.25 µg/mL (≈ 0.427 µM); in [3] (read-out: MIC), 64 µg/mL (≈ 109 µM); in [4] (Pseudomonas aeruginosa), below 0.0625 µg/mL; in test [5] (Acinetobacter baumannii, ATCC19609, read-out: MIC), 0.25 µg/mL (≈ 0.427 µM); in test [6] (Staphylococcus aureus, ATCC29213), 0.125 µg/mL (≈ 0.213 µM). The MIC is below 0.0625 µg/mL in test [7] (Enterococcus faecalis, VRE); 16 µg/mL (≈ 27.3 µM) in test [8] (setting [21]); 2 µg/mL (≈ 3.41 µM) in test [9] (setting [21]); 2 µg/mL (≈ 3.41 µM) in test [10] (setting [21]); 0.25 µg/mL (≈ 0.427 µM) in test [11] (Staphylococcus aureus); 32 µg/mL (≈ 54.6 µM) in test [12] (setting [21]). Moreover, the MIC was 0.125 µg/mL (≈ 0.213 µM) in test [13] (Salmonella enterica); 0.125 µg/mL (≈ 0.213 µM) in test [14] (Escherichia coli, ATCC25922); 2 µg/mL (≈ 3.41 µM) in test [15] (setting [21]); 4 µg/mL (≈ 6.83 µM) in test [16] (setting [21]); below 0.0625 µg/mL in test [17] (Staphylococcus aureus); below 0.0625 µg/mL in test [18] (Pseudomonas aeruginosa, PA14). The MIC in test [19] (setting [21]) was 2 µg/mL.

GWGSFFKKAAHVGK [GK-1]: the MIC in [1] is on record as above 128 µg/mL; in test [2] it was above 128 µg/mL; in test [3], above 128 µg/mL; in test [4] (P. aeruginosa (VIM + tmexCD1-torJ1), micro-broth dilution CLSI 2018, MHB, 37 °C, 16 to 18 h), above 128 µg/mL; in [5] it was above 128 µg/mL; in test [6] (S. aureus ATCC 29213, micro-broth dilution CLSI 2018, MHB, 37 °C, 16 to 18 h), above 128 µg/mL. The MIC is above 128 µg/mL in test [7] (E. faecalis A4 (VRE, VanA), micro-broth dilution CLSI 2018, MHB, 37 °C, 16 to 18 h); above 128 µg/mL in [8]; above 128 µg/mL in [9]; above 128 µg/mL in test [10]; above 128 µg/mL in test [11] (S. aureus 215 (cfr + LZD^R), micro-broth dilution CLSI 2018, MHB, 37 °C, 16 to 18 h); above 128 µg/mL in [12]. The MIC in test [13] (S. enteritidis ATCC 13076, micro-broth dilution CLSI 2018, MHB, 37 °C, 16 to 18 h) is reported as above 128 µg/mL; in [14] (E. coli ATCC 25922, micro-broth dilution CLSI 2018, MHB, 37 °C, 16 to 18 h) it was above 128 µg/mL; in [15], above 128 µg/mL; in test [16], above 128 µg/mL; in [17] (S. aureus G16 (RIF^R), micro-broth dilution CLSI 2018, MHB, 37 °C, 16 to 18 h) it was above 128 µg/mL; in [18] (P. aeruginosa PA14, micro-broth dilution CLSI 2018, MHB, 37 °C, 16 to 18 h), above 128 µg/mL. Moreover, in [19], the MIC was above 128 µg/mL.
